This assay deals with T1, SYK kinase (Homo sapiens, UniProt P43405).
T1 construct: SYK kinase was purified as a full length protein in a baculovirus system near homogeneity; made in house
The assay can be described thus: In vitro Syk inhibition assay (Kinase TK HTRF, Cisbio). As to conditions: full length SYK purified from a baculovirus system; ATP at least twice the Km; room temperature; average of triplicate; read-out: IC50: Concentration inhibiting 50% of protein kinase. Format: biochemical. As to the method: Protocol Inhibition Assays.
SYK kinase was purified as a full length protein in a baculovirus system near homogeneity. All kinase assays were performed with the Kinase TK (tyrosine kinase) HTRF (Homogeneous Time Resolved Fluorescence) assay developed by Cisbio international. These assays were carried out at room temperature in 96-wells half-area white plates in a final volume of 25 μl of kinase buffer (10 mM MgCl2; 2 mM MnCl2; 50 mM Sodium-HEPES pH 7.8; BRIJ-35 0.01%, 1 μM substrate) containing ATP at a concentration of at least twice the Km for each enzyme and an appropriate amount of recombinant enzyme to ensure a linear reaction rate. Reactions were initiated upon introduction of the enzyme and terminated with the addition of one reaction volume (25 μl) of HTRF detection buffer. Plates were incubated for one hour at room temperature and the time resolved Fluorescence resonance energy transfer signal was measured in a Pherastar FS microplate reader (BMG Labtech). All data are the average of triplicate results with a standard deviation <10%.

Here are results for 19 compounds from US10392373B2, “Oxazole derivatives that inhibit Syk” (AB Science, priority 2015, dated 2019).

Some results are limits rather than exact numbers.

For the compound `CC1C(=O)NCCN1c1ncc(-c2cccc(Nc3nccc(N4CCOCC4)n3)c2)o1` (stereo not shown) [Compound 027, 3-Methyl-4-{5-[3-(4-morpholin-4-yl-pyrimidin-2-ylamino)-phenyl]-oxazol-2-yl}-piperazin-2-one], the IC50 fell in the range of 100 to 1000 nM. As for `CC1C(=O)NCCN1c1ncc(-c2cccc(Nc3nccc(N4CCCC4)n3)c2)o1` (stereo not shown) [Compound 028, 3-Methyl-4-{5-[3-(4-pyrrolidin-1-yl-pyrimidin-2-ylamino)-phenyl]-oxazol-2-yl}-piperazin-2-one], the figure is 100 to 1000 nM; as for `CC1C(=O)NCCN1c1ncc(-c2cccc(Nc3nccc(N4CCN(C)CC4)n3)c2)o1` (stereo not shown) [Compound 029, 3-Methyl-4-(5-{3-[4-(4-methyl-piperazin-1-yl)-pyrimidin-2-ylamino]-phenyl}-oxazol-2-yl)-piperazin-2-one], 1000 to 10000 nM; as for `CC1(C)C(=O)NCCN1c1ncc(-c2cccc(Nc3nccc(N4CCOCC4)n3)c2)o1` [Compound 030, 3,3-Dimethyl-4-{5-[3-(4-morpholin-4-yl-pyrimidin-2-ylamino)-phenyl]-oxazol-2-yl}-piperazin-2-one], 100 to 1000 nM. Regarding `CN1CCN(c2ccnc(Nc3cccc(-c4cnc(N5CCNC(=O)C5(C)C)o4)c3)n2)CC1` [Compound 031, 3,3-Dimethyl-4-(5-{3-[4-(4-methyl-piperazin-1-yl)-pyrimidin-2-ylamino]-phenyl}-oxazol-2-yl)-piperazin-2-one], the IC50 was 1000 to 10000 nM. As for `CC1(C)C(=O)NCCN1c1ncc(-c2cccc(Nc3nccc(N4CCCC4)n3)c2)o1` [Compound 032, 3,3-Dimethyl-4-{5-[3-(4-pyrrolidin-1-yl-pyrimidin-2-ylamino)-phenyl]-oxazol-2-yl}-piperazin-2-one], the IC50 was 1000 to 10000 nM.

In the case of `CC(C)C1C(=O)NCCN1c1ncc(-c2cccc(Nc3nccc(N4CCOCC4)n3)c2)o1` (stereo not shown) [Compound 033, 3-Isopropyl-4-{5-[3-(4-morpholin-4-yl-pyrimidin-2-ylamino)-phenyl]-oxazol-2-yl}-piperazin-2-one], the IC50 was in the range of 1000 to 10000 nM. As for `CC(C)C1C(=O)NCCN1c1ncc(-c2cccc(Nc3nccc(N4CCCC4)n3)c2)o1` (stereo not shown) [Compound 034, 3-Isopropyl-4-{5-[3-(4-pyrrolidin-1-yl-pyrimidin-2-ylamino)-phenyl]-oxazol-2-yl}-piperazin-2-one], the figure is 1000 to 10000 nM; as for `CC(C)C1C(=O)NCCN1c1ncc(-c2cccc(Nc3nccc(N4CCN(C)CC4)n3)c2)o1` (stereo not shown) [Compound 035, 3-Isopropyl-4-(5-{3-[4-(4-methyl-piperazin-1-yl)-pyrimidin-2-ylamino]-phenyl}-oxazol-2-yl)-piperazin-2-one], 1000 to 10000 nM. As to `CC(C)c1ccnc(Nc2cccc(-c3cnc(N4CCNC(=O)C4C(C)C)o3)c2)n1` (stereo not shown) [Compound 036, 3-Isopropyl-4-{5-[3-(4-isopropyl-pyrimidin-2-ylamino)-phenyl]-oxazol-2-yl}-piperazin-2-one], the IC50 is not above 100 nM. Regarding `CCc1ccnc(Nc2cccc(-c3cnc(N4CCNC(=O)C4(C)C)o3)c2)n1` [Compound 037, 4-{5-[3-(4-Ethyl-pyrimidin-2-ylamino)-phenyl]-oxazol-2-yl}-3,3-dimethyl-piperazin-2-one], the IC50 was not above 100 nM. Consider `CCc1ccnc(Nc2cccc(-c3cnc(N4CCNC(=O)C4C(C)C)o3)c2)n1` (stereo not shown) [Compound 038, 4-{5-[3-(4-Ethyl-pyrimidin-2-ylamino)-phenyl]-oxazol-2-yl}-3-isopropyl-piperazin-2-one], for which the IC50 is not above 100 nM.

As to `Cc1ccnc(Nc2cccc(-c3cnc(N4CCNC(=O)[C@@H]4C(C)C)o3)c2)n1` [Compound 039, (S)-3-Isopropyl-4-{5-[3-(4-methyl-pyrimidin-2-ylamino)-phenyl]-oxazol-2-yl}-piperazin-2-one], the IC50 lay within 100 to 1000 nM. As for `Cc1ccnc(Nc2cccc(-c3cnc(N4CCNC(=O)[C@H]4C(C)C)o3)c2)n1` [Compound 040, (R)-3-Isopropyl-4-{5-[3-(4-methyl-pyrimidin-2-ylamino)-phenyl]-oxazol-2-yl}-piperazin-2-one], the figure is not above 100 nM; as for `CC1C(=O)NCCN1c1ncc(-c2cccc(Nc3nccc(C4CC4)n3)c2)o1` (stereo not shown) [Compound 041, 4-{5-[3-(4-Cyclopropyl-pyrimidin-2-ylamino)-phenyl]-oxazol-2-yl}-3-methyl-piperazin-2-one], not above 100 nM. Turning to `CC1(C)C(=O)NCCN1c1ncc(-c2cccc(Nc3nccc(C4CC4)n3)c2)o1` [Compound 042, 4-{5-[3-(4-Cyclopropyl-pyrimidin-2-ylamino)-phenyl]-oxazol-2-yl}-3,3-dimethyl-piperazin-2-one], the IC50 was not above 100 nM. The figure for `CC(C)C1C(=O)NCCN1c1ncc(-c2cccc(Nc3nccc(C4CC4)n3)c2)o1` (stereo not shown) [Compound 043, 4-{5-[3-(4-Cyclopropyl-pyrimidin-2-ylamino)-phenyl]-oxazol-2-yl}-3-isopropyl-piperazin-2-one] is not above 100 nM. The figure for `Cc1ccnc(Nc2cc(CN(C)C)cc(-c3cnc(N4CCNC(=O)C4(C)C)o3)c2)n1` [Compound 044, 4-{5-[3-Dimethylaminomethyl-5-(4-methyl-pyrimidin-2-ylamino)-phenyl]-oxazol-2-yl}-3,3-dimethyl-piperazin-2-one] is 100 to 1000 nM. With `Cc1ccnc(Nc2cc(CN3CCCC3)cc(-c3cnc(N4CCNC(=O)C4(C)C)o3)c2)n1` [Compound 045, 3,3-Dimethyl-4-{5-[3-(4-methyl-pyrimidin-2-ylamino)-5-pyrrolidin-1-ylmethyl-phenyl]-oxazol-2-yl}-piperazin-2-one], the IC50 lay in the range of 100 to 1000 nM.
